We go through two compounds from publication PMC8802628, “Selective activation of PFKL suppresses the phagocytic oxidative burst” (Cell, 2021).

The target in one data set is T1, GSDMD (Homo sapiens, UniProt P57764).
T1 sequence (P57764 1-484): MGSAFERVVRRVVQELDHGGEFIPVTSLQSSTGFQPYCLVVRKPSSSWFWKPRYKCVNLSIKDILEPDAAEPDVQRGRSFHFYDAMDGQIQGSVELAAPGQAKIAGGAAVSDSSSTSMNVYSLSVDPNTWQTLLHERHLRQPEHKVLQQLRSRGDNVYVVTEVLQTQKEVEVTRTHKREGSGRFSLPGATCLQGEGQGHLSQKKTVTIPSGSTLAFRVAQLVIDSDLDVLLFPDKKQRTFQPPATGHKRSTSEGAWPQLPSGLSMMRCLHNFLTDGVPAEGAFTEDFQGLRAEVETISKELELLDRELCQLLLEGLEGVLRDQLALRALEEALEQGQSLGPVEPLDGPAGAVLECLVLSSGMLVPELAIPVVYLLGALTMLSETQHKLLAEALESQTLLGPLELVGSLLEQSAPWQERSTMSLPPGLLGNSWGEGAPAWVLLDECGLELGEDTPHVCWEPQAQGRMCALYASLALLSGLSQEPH
Description: TR-FRET liposome cargo release (GSDMD pore formation). To be noted: 10 μM. Type of data set: biochemical. On the procedure: GSDMD-dependent liposome cargo release was conducted by Confluence Discovery Technologies with modifications to the procedure described previously ([Aglietti et al., 2016]). Briefly, liposomes with an encapsulated cargo of europium-chelate conjugated biotin were formed from a lipid mixture of DOPC:DOPE (1:1). 0.15 mg/mL of cargo-loaded liposomes were mixed with 0.3 μM of recombinant GSDMD and incubated with 10 μM LDC7559, 10 μM disulfiram or DMSO vehicle. 0.15 μM caspase-4 and 50 nM streptavidin-Alexa Fluor 647 were added and TR-FRET was read over 1 h using a PHERAstar FSX Microplate Reader (BMG Labtech) equipped with a TR-FRET module.

Data set [1] relates to human bronchial epithelial cells (HBECs). Description: Epithelial barrier tissue damage assay (FITC-dextran). Format: cell-based. The following applies: PMA-activated neutrophils on HBECs. On the procedure:
Human bronchial epithelial cells (HBECs) (4 × 10^4 in […] complete PneumaCult-Ex plus medium) were added to a HTS Transwell-96 permeable support plate (polyester membrane with a 0.4 μm pores) and immersed in receiver plates containing 150 μL of complete PneumaCult-Ex plus medium for 3 days. The medium on confluent monolayers was then replaced with RPMI medium containing neutrophils (4 × 10^4) in RPMI buffer that were previously treated with 5 μM NA-11, 100 μM apocynin, 5 μM NA-4, or DMSO vehicle and then activated with 100 nM PMA. The transwell plate was cultured in a new receiver plate containing 150 μL Hank’s balanced salt solution (HBSS) for 2 h. 10 μL of DMEM supplemented with 5% FBS and 2 mM L-glutamine were added to each well and the plate was incubated for additional 18 h. To measure the permeability of the epithelial barrier, FITC-dextran (200 μg/mL) and DNase-1 (22 Units/mL) were added to the apical side for 1 h. FITC-dextran in the receiver plate was measured (ex: 494 em: 521).

For the compound `COc1ccccc1-c1cc2n(n1)Cc1ccc(NC(C)=O)cc1OC2` [LDC7559, reference compound], the “liposome permeabilization by GSDMD pore-forming fragment” value at GSDMD was “nor did it prevent the GSDMD pore-forming fragment from permeabilizing liposomes”.

For the compound `CC(=O)Nc1ccc2c(c1)OCc1cc(-c3ccccc3C#CCCCO)nn1C2` [NA-11], the “protection of epithelial layer from neutrophil-induced oxidative damage” value in data set [1] is on record as “protected the epithelial layer”.
